Measured values taken from patent US20230226135A9, “ACETYLCHOLINE MODULATION OF IMMUNE FUNCTION” (BCell Solutions, Inc., priority 2019, published 2023).
“Also recorded” adds a separate entry of the source.

How the values were obtained:
[1] = tested on: IL1b, IL6 and IL17; test: TBI-induced changes in brain cytokines; format: in vivo, mice; conditions: CAP i.p. 30 minutes after TBI, brains harvested 24 hours after TBI; not significant, under-powered
Experimental: FIG. 10. TBI-induced changes in brain cytokines. TBI induced increase in brain IL1b, IL6 and IL17 are reversed by CAP. Cap was administered i.p. 30 minutes after TBI and brains were harvested 24 hours after TBI.
(§1) In a separate study, preeclampsia was induced in pregnant mice by injection of either the toll-like receptor 3 (TLR3) agonist, PolyI:C, or with the toll-like receptor 8 ([…]) agonist R837. […] It is pertinent to note that this power issue has been corrected.

[2] = Toxicity evaluation in CFA/Peptide/MLA study (survival, body weight change, spleen weight); format: in vivo, mice
Experimental: SUMMARY: A study was conducted to evaluate a potential alpha7 nAChR anti-inflammatory mechanism of the MKR-4 peptide, using the alpha7 nAChR antagonist methyllycaconitine (MLA). After enrollment, animals in Groups 2-4 were sensitized ID at the base of the tail with 0.1 mL FCA on Day 1. On Days 2, 3, 5 & 7 Groups were then dosed intraperitoneally (IP) with either: peptide and MLA in combination (2 mg/kg and 6 mg/kg, respectively); peptide (2 mg/kg) and MLA vehicle (saline) in combination; or peptide vehicle (saline) and MLA vehicle (saline). Animals were dosed once on Study Day 2 (MLA or MLA vehicle), and Days 3, 5 & 7 (Peptide or Peptide vehicle, MLA or MLA vehicle) as described in Table 2 below. Body weights were recorded on Study Days 0 & 8. Mice were euthanized for necropsy on Study Day 8, and serum and whole spleens were collected from all animals and sent to the sponsor for internal FACS analysis. Toxicity and Peptide mechanistic evaluation was based on absolute body weight change, spleen weights and sponsor FACS analysis (not included in report). […]
Statistical Analysis: Data for each animal were entered into Microsoft Excel and means and standard errors for each group were calculated. Test groups were compared to vehicle controls using a one-way analysis of variance (1-way ANOVA) with a Dunnett's post-hoc analysis for measured (parametric) data. […]

[3] = tested on: IL17a; test: Preeclampsia model in pregnant mice (TLR agonists), IL17; format: in vivo; conditions: PolyI:C or R837 induced; CAP i.p. (2 mg/kg, gestational day 13 elsewhere in the source)
Experimental: FIG. 9. CAP reduces IL-17 production in a model of preeclampsia. Pregnant mice were treated with the TLR3 or […] agonists to induce symptoms of preeclampsia, followed by CAP treatment.
as §1
Preeclampsia, a disease suffered by pregnant woman that is characterized by high blood pressure and signs of damage to other organ systems, most often the liver and kidneys, is often accompanied by inflammation. […] Preeclampsia is also associated with an elevated TH17 response, including elevated IL17a, and elevated IL17a is associated with human and experimental hypertension and poor perinatal outcomes. […] Therefore, the anti-inflammatory effects of CAP were associated with improved outcomes in this model.

[4] = LPS model of sepsis, autoregulation of arterial pressure / afferent arteriolar autoregulatory behavior; format: in vivo; conditions: LPS treated rats, CAP treatment
Experimental: FIGS. 16A-16B. Treatment with CAP restores afferent arteriolar autoregulatory behavior in chronic LPS (0.1 mg/kg/day) treated kidneys. Each data point represents the mean±SE. * P<0.05 vs. control diameter in the same group. ‡ P<0.05 vs. control for the same perfusion pressure. # P<0.05 vs. CAP for the same perfusion pressure.
Sepsis is a potentially life-threatening condition, is caused by excessive inflammation resulting from the body trying to fend off infection. […] LPS treatment (0.84 mg/kg) of rats is used as a model of sepsis and results in loss of arterial pressure that is inflammatory and mimics loss of autoregulation in sepsis. We discovered that autoregulation of arterial pressure can be restored with CAP treatment (FIG. 16), further supporting its use to treat infectious disease associated with sepsis.

[5] = tested on: peripheral pro-inflammatory cells; test: TBI (fluid percussion injury), peripheral pro-inflammatory cells; format: in vivo; conditions: TBI / FPI
Description: FIG. 17. CAP reduces peripheral pro-inflammatory cells. TBI is traumatic brain injury. FPI is fluid percussion injury.

[6] = tested on: splenic B cells; test: CFA-sensitized mice treated with Peptide with or without MLA, FACS of splenic B cells; format: in vivo
Experimental: SUMMARY: A study was conducted to evaluate a potential alpha7 nAChR anti-inflammatory mechanism of the MKR-4 peptide, using the alpha7 nAChR antagonist methyllycaconitine (MLA). After enrollment, animals in Groups 2-4 were sensitized ID at the base of the tail with 0.1 mL FCA on Day 1. On Days 2, 3, 5 & 7 Groups were then dosed intraperitoneally (IP) with either: peptide and MLA in combination (2 mg/kg and 6 mg/kg, respectively); peptide (2 mg/kg) and MLA vehicle (saline) in combination; or peptide vehicle (saline) and MLA vehicle (saline). Animals were dosed once on Study Day 2 (MLA or MLA vehicle), and Days 3, 5 & 7 (Peptide or Peptide vehicle, MLA or MLA vehicle) as described in Table 2 below. Body weights were recorded on Study Days 0 & 8. Mice were euthanized for necropsy on Study Day 8, and serum and whole spleens were collected from all animals and sent to the sponsor for internal FACS analysis. Toxicity and Peptide mechanistic evaluation was based on absolute body weight change, spleen weights and sponsor FACS analysis (not included in report).
Antibodies and Flow Cytometry. Single cell suspensions were made of tissues or cells harvested from culture and stained with the following monoclonal antibodies: a monoclonal antibody directed against mouse alpha 7 nicotinic acetylcholine receptor (alpha 7 nAChR) (Santa Cruz Biotechnology); anti-mouse MHC Class II (M5114), and anti-mouse CLIP 15G4, Santa Cruz. Following staining, cells were analyzed comparing each level of staining to the appropriate isotype control on a Beckman Coulter Cytoflex benchtop flow cytometer. Data was analyzed using FlowJo software (Tree Star Inc.).
Experimental Design: On Study Day 0, mice were weighed and randomized by body weight into treatment groups. Following randomization, on Study Day 1, Groups 2-4 were sensitized ID at the base of the tail with 0.1 mL of FCA. When MLA and Peptide (FRIMAVLAS (SEQ ID NO: 389))—or their vehicles—were dosed on the same day, the MLA antagonist or vehicle was dosed 1 hour before the Peptide or its vehicle.
On Study Day 8, mice were anesthetized with Isoflurane (VetOne, Cat #502017) and bled to exsanguination followed by cervical dislocation for necropsy and tissue collection.

[7] = tested on: CD8+ T cells; test: CAP-induced expansion of CD8+ T cells with or without α7nAChR antagonist; format: in vivo; conditions: CAP treatment
[8] = tested on: CLIP+ B cells; test: CFA-induced arthritis model, CAP depletion of B cells with or without α7nAChR antagonist; format: in vivo, mice
Experimental: FIGS. 11A-11B. […] In this study, CAP was administered at 3 days after CFA, then once daily every 3 days, until day 10 after CFA.
The next series of experiments are focused on the effects of CAP on splenic immune cells. […] As part of this experiment, the mice were co-treated with CAP and the alpha-7 nicotinic acetylcholine receptor (α7nAChR) antagonist, methyllycaconitine (MCA).

Question: Which “brain IL1b, IL6 and IL17” value [1] does the source give for FRIMAVLAS [CAP, α7nAChR agonist] here?
Answer: Its value is “trend toward a reduction; also recorded: reversed”.

Question: And the “survival to study termination” value ([2]; Peptide 2 mg/kg IP Days 3, 5, 7, with or without MLA)?
Answer: The value was “All mice survived”.

Question: And the “group body weight change differences and spleen weight differences” value ([2]; Peptide 2 mg/kg IP, with or without MLA 6 mg/kg, CFA mice)?
Answer: Its value is “none of the group body weight change differences or spleen weight differences were significant”.

Question: And the “elevated IL17 (IL17a)” value [3]?
Answer: Its value is “significantly reduced”.

Question: And the “autoregulation of arterial pressure (afferent arteriolar autoregulatory behavior)” value [4]?
Answer: The value was “restores”.

Question: What about the peripheral pro-inflammatory cells [5] of the same sequence?
Answer: The peripheral pro-inflammatory cells was “reduces”.

Question: And the “percentage of splenic B cells” value ([6]; CFA treated and Peptide treated (2 mg/kg IP), vehicle 49.8%, CFA 50.1%)?
Answer: The value was 34.4%.

Question: What about the “number of CLIP+ B cells” value ([6]; CFA treated mice, Peptide 2 mg/kg IP) of the same sequence?
Answer: Its value is “reduction”.

Question: And the “expansion of CD8+ T cells” value [7]?
Answer: Its value is “induce the expansion; also recorded: induces expansion”.

Question: And the “CFA-induced B cell expansion” value ([8]; 3x CAP treatment)?
Answer: Its value is “reversed”.

Question: And the “number of CLIP+ B cells (pro-inflammatory B cell populations)” value ([8]; CAP from 3 days after CFA, once every 3 days until day 10)?
Answer: The value was “significantly reduced; also recorded: selectively depletes”.
